Measurements as given in ChEMBL document CHEMBL5512633, “Hit-to-lead optimization of 2-aminoquinazolines as anti-microbial agents against Leishmania donovani” (Eur J Med Chem, 2024).
Active and inactive are the calls of the source. No cut-off for these calls is given here.

Tests used:
[1] = Metabolic stability in mouse liver microsomes assessed as hepatic blood flow preincubated for 10 mins and measured after 60 mins by LC-MS/MS analysis; format: ADME, Microsome; conditions: read-out: QH
[2] = Cytotoxicity against human THP-1 cells incubated for 72 hrs by DAPI staining based analysis; format: toxicity, cell-based
[3] = Stability in mouse plasma assessed as compound remaining measured after 2 hrs by LC-MS/MS analysis; format: ADME, cell-free; conditions: read-out: Stability
[4] = Metabolic stability in human liver microsomes assessed as hepatic blood flow preincubated for 10 mins and measured after 60 mins by LC-MS/MS analysis; format: ADME, Microsome; conditions: read-out: QH
[5] = Metabolic stability in human liver microsomes assessed as half-life preincubated for 10 mins and measured after 60 mins by LC-MS/MS analysis; format: ADME, Microsome
Leishmania donovani [6] = assay: Antileishmanial activity against Leishmania donovani MHOM/IN/1983/AG83 axenic amastigotes assessed as inhibition of growth incubated for 48 hrs by flow cytometric analysis; format: functional, organism-based; conditions: MHOM/IN/1983/AG83, 48 h
[7] = Lipophilicity, logD of compound in 1-octanol and phosphate buffer at pH 7.4 by HPLC-UV analysis; format: physicochemical; conditions: 1-octanol/phosphate buffer
[8] = Stability in human plasma assessed as compound remaining measured after 2 hrs by LC-MS/MS analysis; format: ADME, cell-free; conditions: read-out: Stability
[9] = Metabolic stability in mouse liver microsomes assessed as half-life preincubated for 10 mins and measured after 60 mins by LC-MS/MS analysis; format: ADME, Microsome
Leishmania donovani [10] = assay: Antileishmanial activity against Leishmania donovani MHOM/IN/1983/AG83 axenic amastigotes assessed as inhibition of growth at 30 uM incubated for 48 hrs by flow cytometric analysis relative to control; format: functional

SMILES	hepatic extraction ratio at 1 h [1]	CC50 at 72 h [2]	remaining at 2 h [3]	hepatic extraction ratio at 1 h [4]	half-life [5]	IC50 (Leishmania donovani [6])	logD [7]	remaining at 2 h [8]	half-life [9]	inhibition at 30 µM (Leishmania donovani [10])	inhibition (Leishmania donovani [10])
COc1cc2c(N3CCCCC3)nc(NCc3ccc(F)cc3)nc2cc1OC1CCCC1	0.592	46.5 µM	96.9%	0.722	12.4 min	10.2 µM	2.64	105%	13 min	–	–
COc1cc2c(N3CCCCC3)nc(NCc3ccccc3)nc2cc1OC1CCCC1	0.496	4.13 µM	88.7%	0.607	20.8 min	7.49 µM	2.59	93.7%	19.2 min	–	–
CCCCc1ccc(CNc2nc(N3CCCCC3)c3cc(OC)c(OC4CCCC4)cc3n2)cc1	–	5.69 µM	–	–	–	–	–	–	–	~17%	–
COc1cc2c(N3CCCCC3)nc(N(C)Cc3ccc(Cl)cc3)nc2cc1OC1CCCC1	–	> 50 µM	–	–	–	10.2 µM	–	–	–	–	–
COc1cc2c(N3CCCCC3)nc(NS(C)(=O)=O)nc2cc1O	–	> 100 µM	–	–	–	–	–	–	–	~3.25%	–
COc1cc2c(N3CCCCC3)nc(N(C)Cc3ccc(Br)cc3)nc2cc1OC1CCCC1	–	34.4 µM	–	–	–	54 µM	–	–	–	–	–
COc1cc2c(N3CCCCC3)nc(N)nc2cc1O	–	22.2 µM	–	–	–	–	–	–	–	~13.6%	–
COc1cc2c(N3CCCCC3)nc(NCc3ccc(F)cc3)nc2cc1OCc1ccccc1	–	26.9 µM	–	–	–	10.5 µM	–	–	–	–	–
COc1cc2c(N3CCCCC3)nc(NCc3ccc(F)cc3)nc2cc1O	–	28.2 µM	–	–	–	12.2 µM	–	–	–	–	–
CNc1nc(NCc2ccc(F)cc2)nc2cc(OC3CCCC3)c(OC)cc12	0.674	2.29 µM	88.9%	0.738	11.4 min	1.55 µM	2.22	73.2%	9.1 min	–	–
CC(C)[N+](C)(CCOC(=O)C1c2ccccc2Oc2ccccc21)C(C)C [PROPANTHELINE]	–	–	37.2%	–	–	–	–	1.2%	–	–	–
COc1cc2c(N3CCCCC3)nc(N)nc2cc1OCc1ccccc1	–	15.4 µM	–	–	–	12 µM	–	–	–	–	–
COc1cc2c(N3CCCCC3)nc(NCc3ccc([N+](=O)[O-])cc3)nc2cc1OC1CCCC1	–	5.68 µM	–	–	–	9.63 µM	–	–	–	–	–
COc1cc2c(N3CCCCC3)nc(Cl)nc2cc1OCc1ccccc1	–	> 100 µM	–	–	–	–	–	–	–	–	inactive
COc1cc2c(N3CCCCC3)nc(NC(=O)c3ccc(Cl)cc3)nc2cc1OC1CCCC1	–	7.58 µM	–	–	–	16.6 µM	–	–	–	–	–
COc1ccc(CNc2nc(N3CCCCC3)c3cc(OC)c(OCc4ccccc4)cc3n2)cc1	0.548	19.5 µM	106%	0.499	32.2 min	10.3 µM	2.39	70.2%	15.5 min	–	–
COc1cc2c(N3CCCCC3)nc(NCC3CCCCC3)nc2cc1OC1CCCC1	0.699	6.97 µM	99.3%	0.747	22.2 min	4.36 µM	3.34	46%	16.3 min	–	–
COc1cc2c(N3CCCCC3)nc(NCc3ccccc3)nc2cc1O	–	30.2 µM	–	–	–	11.3 µM	–	–	–	–	–
COc1cc2c(N3CCCCC3)nc(N)nc2cc1OC1CCCC1	–	> 100 µM	–	–	–	19.4 µM	–	–	–	–	–
COc1cc2c(N3CCCCC3)nc(NS(C)(=O)=O)nc2cc1OC1CCCC1	–	57.9 µM	–	–	–	–	–	–	–	~5.1%	–

SMILES	hepatic extraction ratio at 1 h [1]	CC50 at 72 h [2]	remaining at 2 h [3]	hepatic extraction ratio at 1 h [4]	half-life [5]	IC50 (Leishmania donovani [6])	logD [7]	remaining at 2 h [8]	half-life [9]	inhibition at 30 µM (Leishmania donovani [10])	inhibition (Leishmania donovani [10])
COc1cc2c(N3CCCCC3)nc(NS(C)(=O)=O)nc2cc1OCc1ccccc1	–	> 50 µM	–	–	–	–	–	–	–	~5.5%	–
COc1cc2c(N3CCOCC3)nc(NCc3ccc(F)cc3)nc2cc1OC1CCCC1	0.732	> 50 µM	95.6%	0.843	6 min	12 µM	3.22	59.3%	6.9 min	–	–
COc1cc2c(N3CCCCC3)nc(NCc3ccc(C)cc3)nc2cc1OC1CCCC1	–	3.49 µM	–	–	–	5.32 µM	–	–	–	–	–
COc1cc2c(N3CCCCC3)nc(NCc3ccc(Cl)cc3)nc2cc1OC1CCCC1	0.519	12.2 µM	92.2%	0.627	19.1 min	8.13 µM	3.14	103%	17.5 min	–	–
COc1cc2c(N3CCCCC3)nc(NCc3ccc(C(F)(F)F)cc3)nc2cc1OC1CCCC1	0.484	28.1 µM	88.1%	0.455	38.9 min	17.9 µM	2.94	97.5%	20.3 min	–	–
COc1ccc(CNc2nc(N3CCCCC3)c3cc(OC)c(O)cc3n2)cc1	–	> 50 µM	–	–	–	12.3 µM	–	–	–	–	–
COc1cc2c(N(C)C)nc(NCc3ccc(Br)cc3)nc2cc1O	–	–	–	–	–	4.78 µM	–	–	–	–	–
Clc1ccc(CNc2nc(N3CCCCC3)c3cc4c(cc3n2)OCO4)cc1	0.637	13.8 µM	97.4%	0.668	16 min	13.5 µM	2.42	77.5%	10.8 min	–	–
COc1cc2c(N(C)C)nc(NCc3ccc(F)cc3)nc2cc1OC1CCCC1	0.733	3.79 µM	91.6%	0.799	8.1 min	5.67 µM	2.46	81.2%	6.9 min	–	–
COc1cc2c(N3CCCCC3)nc(NC(=O)c3ccc(C(F)(F)F)cc3)nc2cc1OC1CCCC1	–	79 µM	–	–	–	–	–	–	–	~34.5%	–
O=c1c(O)c(-c2ccc(O)c(O)c2)oc2cc(O)cc(O)c12 [QUERCETIN]	–	–	–	–	–	–	2.5	–	–	–	–
COc1cc2c(N3CCCCC3)nc(N(C)C)nc2cc1O	–	73.4 µM	–	–	–	–	–	–	–	~18.8%	–
COc1cc2nc(NCc3ccc(F)cc3)nc(N3CCCCC3)c2cc1OC	–	11.1 µM	–	–	–	13.7 µM	–	–	–	–	–
COc1cc2c(N3CCCCC3)nc(Nc3ccc(Cl)cc3)nc2cc1OC1CCCC1	–	37.5 µM	–	–	–	22.7 µM	–	–	–	–	–
COc1ccc(CNc2nc(N3CCCCC3)c3cc(OC)c(OC4CCCC4)cc3n2)cc1	–	4.56 µM	–	–	–	16.6 µM	–	–	–	–	–
COc1cc2c(N3CCCCC3)nc(NCc3ccc(C(C)(C)C)cc3)nc2cc1OC1CCCC1	0.454	2.63 µM	44%	0.216	117 min	4.93 µM	3.66	63%	22.8 min	–	–
COc1cc2c(N3CCCCC3)nc(NCc3ccccc3)nc2cc1OCc1ccccc1	–	> 100 µM	–	–	–	9.54 µM	–	–	–	–	–
COc1cc2c(N3CCCCC3)nc(NCc3ccc(C(F)(F)F)cc3)nc2cc1O	–	27.1 µM	–	–	–	8.91 µM	–	–	–	–	–
COc1cc2c(N(C)C)nc(NCc3ccc(Br)cc3)nc2cc1OC1CCNC1 (centres undefined)	–	–	–	–	–	3.26 µM	–	–	–	–	–
COc1cc2c(N3CCCCC3)nc(NC3CCCCC3)nc2cc1OC1CCCC1	–	10.2 µM	–	–	–	3.28 µM	–	–	–	–	–
